Reference: patent US20260271929A1, “FUNGICIDAL COMBINATIONS, MIXTURES AND COMPOSITIONS AND USES THEREOF” (ADAMA MAKHTESHIM LTD., priority 2023, published 2026)
Read-outs that look alike come from different tables or passages of the source.

System: Rhizoctonia solani
Assay: Microtiter plate (MTP) fungal growth inhibition assay, OD at 590 nm after 5 days; interaction by Wadley approach
Type: cell-based
Details: for EC50: Rhizoctonia solani
Protocol: In the […] method, synergistic activity is determined from dose response curves. With this method, the efficacy of the active ingredient (“a.i.”) is determined by comparing the degree of fungal attack on treated plants with that on untreated, similarly inoculated and incubated check plants. Each a.i. is generally tested at multiple. (e.g., 6) 25 concentrations, and dose response curves are generated. The dose response curves are used to establish the EC50 (i.e., the effective concentration of a.i. providing 50% disease control) of the individual compounds as well as of the combinations (EC50Observed) The experimentally found values of the mixture at a given weight ratio are compared with the values that would have been found were only a complementary efficacy of the components was present as follows: 5 [formula] • A and B=the single products tested • a and b=the ratio of each product in the mixture • ECA and ECB=observed effective concentration of the single products A and B at different control levels (50 or 90%) 10 The ratio EC50 (A+B)Theo/EC50(A+B)observed expresses the factor of interaction level (R) which may be interpreted in accordance with the following Table: [table] The compound of Formula I, […] and Pyridachlometyl were tested straight or in mixture on the Rhizoctonia solani pathogen. the active ingredients straight or in mixture were diluted in a suitable solvent to a set of concentrations. Two fungicide ratios were tested for each combination between the compound of Formula I and Chloroinconazide or Pyridachlometyl. One hundred microliters of sterile distilled water with or without fungicide were added to 100 μl of pathogen suspension into each well in a microtiter plate (MTP). Each bioassay was carried out with the following 8 treatment groups corresponding to 8 concentrations of the fungicide mixture. In the MTP assay, 3 replicates (wells) were carried out for each concentration of fungicide mixture. The MTPs were incubated in the dark at 19° C. for 5 days under saturated humidity in order to avoid evaporation. Then, the fungal growth in each well was estimated by measuring the Optical Density (OD) at 590 nm with a BMG plate reader (FLUOstar Omega, BMG Labtech). The OD values at 5 days were automatically corrected by comparison with those measured at day zero (inoculation day). The generated data were transferred to the MARS Data Analysis software (BMG Labtech) which allows to calculate percentage of growth inhibition induced by each concentration of fungicide tested. Finally, the EC50 of each product and mixture was determined. • (i) No bacterial nor fungal contamination at any stage of the assay must be observed. • (ii) A normal and constant mycelium growth must be observed in the control wells (without fungicide). • (iii) At the end of the evaluation the final minimum OD must reach at least a value of 0.25 Absorbance's Unit (AU).

[1] = MTP, 5 days at 19° C., OD 590 nm
[2] = Table 9, active ingredient straight

In the case of `CC1N[C@H](C(=O)N/N=C/c2ccc(Cl)cc2)Cc2c1[nH]c1ccccc21` (stereo partly drawn) [Chloroinconazide], the “percentage of growth inhibition” value (Dose 0.110) is reported as 14.4%, the “percentage of growth inhibition” value (Dose 0.329) is reported as 2.0% and the “percentage of growth inhibition” value (Dose 0.988) is reported as 24.1%. For the same molecule, the “percentage of growth inhibition” value (Dose 2.96) was 9.1%, the “percentage of growth inhibition” value (Dose 8.89) was 19.5% and the “percentage of growth inhibition” value (Dose 26.7) was 99.3%. The “percentage of growth inhibition” value (Dose 80) was 100.1%, the EC50 [1] was 15.399 µg/mL and the EC50 observed [2] was 15.3990 µg/mL.
With `Cc1ccc(S(=O)(=O)n2cc(F)c(=N)n(C)c2=O)cc1` [Compound (I), 5-fluoro-4-imino-3-methyl-1-tosyl-3,4-dihydropyrimidin-2(1H)-one] the EC50 (120 h, MTP, 5 days at 19° C., OD 590 nm, read-out: EC50) was over 320 µg/mL, the “percentage of growth inhibition” value (Dose 0.020) was 15.8% and the “percentage of growth inhibition” value (Dose 0.102) was 23.9%. The “percentage of growth inhibition” value (Dose 0.512) was 22.5%, the “percentage of growth inhibition” value (Dose 2.56) was 0.7% and the “percentage of growth inhibition” value (Dose 12.8) was 13.5%. The “percentage of growth inhibition” value (Dose 64) was 27.7%, the “percentage of growth inhibition” value (Dose 320) was 40.1% and the EC50 (Table 9, active ingredient straight, read-out: EC50 observed) was at least 320 µg/mL.
With `Cc1nnc(Cl)c(-c2c(F)cccc2F)c1-c1ccccc1` [Pyridachlometyl] the “percentage of growth inhibition” value (Dose 0.00781) was −1.1%, the “percentage of growth inhibition” value (Dose 0.01563) was 2.6% and the “percentage of growth inhibition” value (Dose 0.03125) was 3.7%. The “percentage of growth inhibition” value (Dose 0.06250) was 12.7%, the “percentage of growth inhibition” value (Dose 0.12500) was 68.7% and the “percentage of growth inhibition” value (Dose 0.2500) was 76.0%. For the same molecule, the “percentage of growth inhibition” value (Dose 0.500) was 77.2%, the EC50 [1] was 0.111 µg/mL and the EC50 observed [2] was 0.1115 µg/mL.
